Laboratory results taken from patent US20220265785A1, “COMPOSITION FOR PREVENTING OR TREATING URIC ACID-RELATED DISEASE” (GUANGZHOU CENTURY CLINICAL RESEARCH CO., LTD, priority 2019, published 2022).

Experiments:
[1] = system: patient with hyperuricemia accompanied by gout; test: Lysozyme enteric tablets in patient with hyperuricemia accompanied by gout; assay type: in vivo, human; conditions: same patient before lysozyme; serum uric acid remained at 700 μmol/L or more
Source text: The administration of lysozyme enteric tablets (produced by Xiangbei Welman Pharmaceutical Co., Ltd.) by two patients with hyperuricemia is described below to specifically illustrate the present disclosure.
A person suffering from gout had obvious redness, swelling and pain in the ankles and toes, and difficulty in walking. […] The lysozyme enteric tablets were tried daily (once in the morning, once at noon and once in the evening, 2 g each time). One month later, they felt that the frequency of pain episodes decreased and the difficulty in walking was alleviated.

[2] = system: hyperuricemia model animals; test: Effect on serum uric acid level of hyperuricemia model rats (potassium oxonate + uric acid); assay type: in vivo, SD rats; conditions: for Serum uric acid content, Day 0: Day 0, before modeling and before drug, 8 rats; for Serum uric acid content, Day 0 / Serum uric acid content, Day 12 / Serum uric acid content, Day 18: X ± SD; for Serum uric acid content, Day 12: Day 12, after modeling, before drug (dosing from D13)
Source text: (§1) Lysozyme granules, enteric lysozyme granules, and benzbromarone fine granules. Each test drug was moistened and uniformly mixed with 0.5% sodium carboxymethylcellulose for easy administration.
(§2) SD rats. The rats had free access to drinking water and food, and they were adaptively reared for one week before test.
(§3) Except for rats in the blank group, the other rats were modeled for 12 days, and the serum uric acid level of each rat was detected. Then the rats were evenly divided into groups according to the uric acid level of each rat, with 8 animals in each group.
(§4) Lysozyme groups and enteric lysozyme groups: High and low doses of the lysozyme granules and enteric lysozyme granules were respectively taken orally, and the dosages were 10 mg/kg and 30 mg/kg based on the active ingredient, once a day.
(§5) Benzbromarone group: The benzbromarone fine granules were taken orally at a dose of 30 mg/kg based on the active ingredient, once a day.
(§6) The test was carried out for a total of 18 days.
(§7) On day 1 of the test, except for the animals in the blank group, the animals in the other groups were orally given a modeling agent (1.5 g/kg potassium oxonate +0.3 g/kg uric acid, dissolved in 0.5% sodium carboxymethylcellulose) once to start modeling, and thereafter, the same amount of the modeling agent was administrated at the same time every day. 0.5 ml of blood was taken from the orbit before the start of the test (DO) and on day 12
(§8) (D12) of the test, respectively, and centrifuged, then the serum was taken and tested for serum uric acid level using a uric acid assay kit and a microplate reader; in addition, 0.5 g of fresh midsection rat feces were taken, diluted and uniformly mixed with four times volume of phosphate buffer, centrifuged, ultrasonically mixed until uniform, incubated at 100° C. for 40 minutes, cooled and then centrifuged, and the supernatant was taken and tested for fecal uric acid level using the uric acid assay kit and the microplate reader.
(§9) Thereafter, the rats were grouped according to the serum uric acid value of each rat. From day 13 (D13), each rat was given the test drug intragastrically every day, as well as the modeling agent every day. The interval between the administration of the test drug and the administration of the modeling agent was more than 1 hour. The drug administration was stopped after day 18 (D18) of the test, and the serum uric acid levels and fecal uric acid levels were determined according to the previous method.

[3] = system: hyperuricemia model animals; test: Effect on fecal uric acid level of hyperuricemia model rats (potassium oxonate + uric acid); assay type: in vivo, SD rats; conditions: for Fecal uric acid content, Day 0: Day 0, before modeling and before drug; for Fecal uric acid content, Day 0 / Fecal uric acid content, Day 12 / Fecal uric acid content, Day 18: X ± SD; for Fecal uric acid content, Day 12: Day 12, after modeling, before drug; for Fecal uric acid levels compared with the model control group: day 18
Source text: as §1, §2, §3, §4, §5, §6, §7, §8, §9

[4] = 10 mg/kg oral once a day D13-D18
[5] = 30 mg/kg oral once a day D13-D18

Compound | Effects of past use to relieve pain and reduce uric acid [1] | Serum uric acid content, Day 0 ([2]; 10 mg/kg group) [µmol/L] | Serum uric acid content, Day 12 ([2]; 10 mg/kg group) [µmol/L] | Serum uric acid content, Day 18 [2, 4] [µmol/L] | Serum uric acid content, Day 0 ([2]; 30 mg/kg group) [µmol/L] | Serum uric acid content, Day 12 ([2]; 30 mg/kg group) [µmol/L] | Serum uric acid content, Day 18 [2, 5] [µmol/L] | Serum uric acid levels compared with the model control group ([2]; day 18) | Fecal uric acid content, Day 0 ([3]; 10 mg/kg group) [mmol/L] | Fecal uric acid content, Day 12 ([3]; 10 mg/kg group) [mmol/L] | Fecal uric acid content, Day 18 [3, 4] [mmol/L] | Fecal uric acid content, Day 0 ([3]; 30 mg/kg group) [mmol/L] | Fecal uric acid content, Day 12 ([3]; 30 mg/kg group) [mmol/L] | Fecal uric acid content, Day 18 [3, 5] [mmol/L] | Fecal uric acid levels compared with the model control group [3]
CC(C)Cc1ccc(C(C)C(=O)O)cc1 (centres unmarked) [ibuprofen] | not good | – | – | – | – | – | – | – | – | – | – | – | – | – | –
Lysozyme: Homemade granules: lysozyme with a potency of more than 20000 U/mg mixed with the same amount of starch, granulated with water | – | 43.66 ± 4.16 | 122.12 ± 10.27 | 161.97 ± 22.11 | 40.49 ± 3.33 | 120.79 ± 17.64 | 149.76 ± 20.12 | significantly lower | 0.98 ± 0.13 | 1.26 ± 0.24 | 1.84 ± 0.20 | 1.15 ± 0.16 | 1.24 ± 0.20 | 1.98 ± 0.20 | significantly higher
Oc1ncnc2[nH]ncc12 [allopurinol] | not good | – | – | – | – | – | – | – | – | – | – | – | – | – | –
CCc1oc2ccccc2c1C(=O)c1cc(Br)c(O)c(Br)c1 [Benzbromarone, reference compound] | – | – | – | – | 41.02 ± 3.71 | 117.14 ± 17.74 | 153.45 ± 26.17 | – | – | – | – | 1.12 ± 0.17 | 1.25 ± 0.31 | 1.34 ± 0.31 | did not increase significantly
